One assay has as its system C57bl/6J Mice. As to the kind of experiment: C57bl6 mouse OGTT. Type of assay: in vivo. The protocol: Male, C57bl/6J Mice were ordered in at 8 weeks of age from Jackson Labs. Individual mice weighed anywhere in the range of 25-30 grams on study day. The mice were fasted, with removal of food occurring at 7 am on the morning of the study. Animals were moved into the room at 10:00 am, to give them time to acclimate. Glucose (insulin syringes) was drawn up either the night before or the morning of the study. Glucose was dosed (IP) at 1.5 g/kg at 7.5 ml/kg (20% glucose straight TEKNOVA, 250 ml sterile bottle w/catalogue number G0525). Test compounds were kept spinning and were only drawn into the syringes prior to study commencement. Animals were bled via tail snip to determine basal glucose levels prior to dosing of treatments. An Ascensia BREEZE Blood Glucose Monitoring System by Bayer (using unique 10-test disks) was used for determining glucose levels. The bleeds started at approximately 12:45 pm and dosing started, at 1-minute intervals, immediately after. All groups were dosed 30 minutes prior to glucose administration at a dose volume of 10 ml/kg (the dose volume was calculated separately for each individual animal). Thirty minutes after the first dose animals were bled again for a second baseline, or T=0, and immediately dosed with glucose via an i.p. injection. The exact dose volume for glucose was also calculated separately for each individual animal. Glucose measurements were taken at −30 min prior to compound dose, at t=0 (immediately prior to glucose dose), and at 15, 30, 45, 60, 90 min post glucose dose.
Glucose values were entered into an Excel sheet and graphed in GraphPad Prism. The following were calculated from Prism: Change from −30 to 0 BSLN Glucose, Raw Glucose AUC −30 to 90 min, Delta Glucose AUC −30 to 90 min, Raw Glucose AUC 0 to 90 min, Delta Glucose AUC 0 to 90 min.
The assay design is the same as that described above for the C57bl6 mouse IPGTT. The difference is that glucose was dosed PO at 3 g/kg, 7.5 ml/kg of 40% glucose.

The target in assay [1] is T1, long form of human GPR120 (Homo sapiens, UniProt Q5NUL3).
T1 construct: host or cells: PathHunter CHO-K1 GPR120 β-Arrestin Cell Line
T1 sequence (Q5NUL3 1-377 isoform Q5NUL3-1): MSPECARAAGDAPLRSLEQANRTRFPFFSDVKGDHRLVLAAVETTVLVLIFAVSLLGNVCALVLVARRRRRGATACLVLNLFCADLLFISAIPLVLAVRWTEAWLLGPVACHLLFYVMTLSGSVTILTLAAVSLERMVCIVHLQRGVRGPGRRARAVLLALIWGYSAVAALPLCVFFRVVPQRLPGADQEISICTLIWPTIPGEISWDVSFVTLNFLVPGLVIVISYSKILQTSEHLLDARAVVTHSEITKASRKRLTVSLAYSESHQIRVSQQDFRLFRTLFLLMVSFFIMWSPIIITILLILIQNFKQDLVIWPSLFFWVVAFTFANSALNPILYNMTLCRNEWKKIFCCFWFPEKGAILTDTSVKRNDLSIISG
Kind of assay: Human GPR120 DiscoveRx PathHunter Beta-Arrestin Assay, Procedure β-arrestin A (3000 cells per well). Type of assay: cell-based. To be noted: read-out: GPR120 B-arrestin A EC50. From the text: (§1) The binding of an agonist (medium/long chain fatty acids or small molecule agonists) to the G-protein-coupled receptor GPR120 activates phospholipase C, leading to release of intracellular Ca^+2 through the generation of inositol 1,4,5-trisphosphate (InsP3 or IP3). GPR120 activation can also trigger intracellular signaling via recruitment of β-Arrestin. In the present method, agonist-induced activation of the human GPR120 receptor is monitored through the use of PathHunter CHO-K1 GPR120 β-Arrestin Cell Line engineered by DiscoveRx, as detailed below. The cell lines are designed to co-express both the ProLink/Enzyme Donor (PK)-tagged GPCR and the Enzyme Activator (EA)-tagged β-Arrestin fusion proteins. Upon GPR120 receptor stimulation/activation, the EA-tagged β-Arrestin portion is translocated to the tagged receptor, where the two enzyme fragments are brought within close proximity. Under these conditions, these fragments can interact and form an active Beta-gal enzyme complex through Enzyme Fragment Complementation (EFC). This active Beta-gal complex can enzymatically hydrolyse the substrate to produce a detectable light signal; therefore, activation as a function of agonist concentration can be expressed as an EC50 value to determine relative compound activities. This in vitro assay therefore serves to assess compound agonist activity of the GPR120.
In Procedure β-arrestin A, the cell used were PathHunter CHO-K1 GPR120 β-Arrestin Cell Line, expressing the long form of human GPR120 (Genbank accession number NM_181745), with 3000 cells per well.
(§2) The selected CHO-K1 GPR120 β-Arrestin cells were cultured in Ham's F12 media supplemented with 10% fetal bovine serum (FBS), 1% Glutamine, 1×p/s, 800 μg/ml G418 and 300 μg/ml Hygromycin B (for selection). Cell stocks were maintained and grown in a sub-confluent state using standard cell culture procedures. The day before the experiment, the cells were harvested with non-enzymatic cell dissociation buffer and re-suspended in complete growth media at the desired concentration. A Corning 384-plate was then seeded with the proper number of cells in a volume of 25 μL, per well. The seeded plates were incubated overnight at 37° C.
(§3) On the day of the experiment, the Assay Buffer containing (a) HBSS with Ca^++ and Mg^++, (b) 20 mM HEPES, and (c) 0.1% BSA stabilizer (pH 7.4) was prepared. The growth medium was gently removed from the cell plates and 20 μL of Assay Buffer added to each well. The plate was then incubated at 37° C. for 60 mins. Test compounds were serially diluted in Assay Buffer to desired concentrations (more particularly, to one or more of the following μM concentrations: 25 μM, 12.5 μM, 6.25 μM, 3.125 μM, 1.562 μM, 0.781 μM, 0.391 μM, 0.195 μM, 0.098 μM, 0.049 μM, 0.024 μM, 0.012 μM). Five μl of compound dilution was then added to each well and the plate incubated at 37° C. for 90 mins. The detection reagents were prepared according to the manufacture's instruction. Twelve μL of the detection reagents were added to each well and the plate incubated at room temperature for 60 mins.
(§4) The plates were read on an EnVision instrument, using Protocol name: Luminescence, Plate type: 384 Costar, Measurement height: 3 mm, Measurement time: 1 s, Aperture: 384 Plate aperture. The % activity relative to the positive control was calculated using the following equation:
(§5) The % Activity values were plotted versus the concentration of test compound and fitted to a sigmoidal dose-response curve with a Hill slope=1 (fixed value) using nonlinear regression with GraphPad Prism 5.0 to calculate the EC50 values. The Fitting Equation was: Y=Bottom+(Top−Bottom)/(1+10^((LogEC50−X)*HillSlope)), where X is the log of the concentration and Y is the response.

The target of assay [2] is T2, short form of the GPR120 receptor (Homo sapiens, UniProt Q5NUL3).
T2 construct: host or cells: PathHunter CHO-K1 GPR120S β-Arrestin Cell Line
T2 sequence (Q5NUL3 1-361): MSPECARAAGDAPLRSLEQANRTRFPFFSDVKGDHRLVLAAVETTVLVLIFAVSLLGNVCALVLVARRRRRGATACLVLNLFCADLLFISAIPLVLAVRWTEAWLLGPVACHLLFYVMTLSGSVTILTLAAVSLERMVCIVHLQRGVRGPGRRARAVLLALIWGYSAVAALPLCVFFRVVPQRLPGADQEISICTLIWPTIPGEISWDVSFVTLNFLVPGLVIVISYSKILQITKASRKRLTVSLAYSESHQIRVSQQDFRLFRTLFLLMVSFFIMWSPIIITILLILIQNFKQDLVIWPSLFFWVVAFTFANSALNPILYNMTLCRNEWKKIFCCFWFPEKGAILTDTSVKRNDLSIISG
Kind of assay: Human GPR120 DiscoveRx PathHunter Beta-Arrestin Assay, Procedure β-arrestin B (5000 cells/well). Type of assay: cell-based.
Text: as §1
In Procedure β-arrestin B the cells used were PathHunter CHO-K1 GPR120S β-Arrestin Cell Line, expressing the short form of the GPR120 receptor (Accession #NM_181745), with 5000 cells/well.
as §2, §3, §4, §5

The next assay has as its target T3, Human GPR120 short form (Homo sapiens, UniProt Q5NUL3).
T3 construct: expressed in transfected cells
T3 sequence (Q5NUL3 1-361): T2 sequence (Q5NUL3 1-361)
As to the kind of experiment: Human GPR120 in Calcium Flux Assay, Procedure Calcium B (4200 cells/well). Type of assay: cell-based. From the text: This in vitro assay serves to assess test compound agonist activity against the short splice variant (SVS with Accession number NM_001195755.1 confirmed by sequencing data) of the GPR120 receptor. The Human Short splice variant #2 (NM_001195755.1) is missing an in-frame coding exon compared to variant 1 (the Human Long splice variant NM_181745.3), resulting in a shorter isoform (GPR120-S) lacking a 16 aa protein segment compared to isoform GPR120-L. The assay platform utilizes HEK-293 cells stably transfected to express the Human GPR120 short form. These cells are first loaded with the Ca^+2 sensitive dye, Fluo-4 NW. Upon stimulation, intracellular released Ca^+2 can bind to the dye and alter its fluorescence intensity. This increase in fluorescence signal, and thus the flux in intracellular [Ca^+2], is detected and quantitated by fluorescence imaging using a FLIPR reader. The effect of the agonist is measured as a function of concentration and used to calculate an EC50 based upon a response curve.
In this procedure 4200 cells/well were employed.
A Human GPR120 clone (Genbank accession number NM_001195755.1) was placed into the pcDNA3.1 mammalian expression vector carrying the neomycin resistance gene. A stable mammalian cell was generated by placing the above clone into a HEK293 background. Clonal cells responding to long chain fatty acids had expression levels of GPR120 confirmed by RT-qPCR. Human HEK-GPR120 cells were cultured in Dulbecco's Modified Eagle's Medium (DMEM)/F12 medium supplemented with 10% fetal bovine serum (FBS), 1% L-Glutamine and 1% penicillin/streptomycin and 0.5 mg/ml G-418. Cells were split 2 times a week to keep the cells in the log-phase growth.
In preparation for the assay, HEK cells stably transfected with Human GPR120 (2.5K cells per well in 25 uL growth medium) were seeded into 384-well plates and then incubated overnight (37° C., 5% CO2). The next day, the media was changed to 20 μl assay buffer and the cell starved for 1 h at 37° C. The dye loading solution (2× dye) was prepared using 10 ml assay buffer, 100 μl of 250 mM probenecid, 1 bottle of Component A, and 20 μl of dye in DMSO. Twenty μl of the 2× dye loading buffer was then added to each well. The plates were incubated at 37° C. for 30 min, then at room temperature for an additional 15 minutes, before performing the assay on FLIPR.
Test compounds were prepared in assay buffer (2 μl of test compound+198 μl assay buffer, final DMSO in assay plate is 0.2%) at the desired concentration, more particularly at 100 μM, 50 μM, 25 μM, 12.5 μM, 6.25 μM, 3.125 μM, 1.562 μM, 0.781 μM, 0.391 μM, 0.195 μM, 0.098 μM, 0.049 μM, 0.024 μM and 0.012 μM.
The assay was performed on a FLIPR plate reader using the following parameters. Baseline was read for 10 seconds at 1 sec intervals. The program was set to transfer 10 μL of ligand from compound plate to cell plate after baseline reading. Aspiration was executed at: 10 μl/sec speed, 4.6 μl height; Dispensing was executed at: 30 μl/sec speed, 45 μl height. After compound addition, each well was read for 300 sec, with measurements collected at 1 sec intervals.
The kinetic data from the FLIPR was based upon a 5 minute window for data collection. The fluorescence of each sample well was used for individual calculations of a normalized RFU value, which was defined as maximum response minus the minimum response. The normalized fluorescence reading (RFU) was calculated as follows: RFU=Fmax−Fmin
The data were fitted to a sigmoidal dose-response curve with a variable Hill slope (<2) using nonlinear regression with GraphPad Prism 5.0 to calculate the EC50 values. The Fitting Equation was: Y=Bottom+(Top−Bottom)/(1+10^((LogEC50−X)*HillSlope)), where X is the log of the concentration and Y is the response.
In general terms: Calcium assays in cells follow changes in intracellular calcium, usually with a dye or a luminescent sensor.

A word on the EC50: it is the concentration that produces a half-maximal response. For `CCCc1cc2cc(F)cc(COc3ccc(CCC(=O)O)c(C)c3C)c2o1` [Compound 13, 3-{4-[(5-Fluoro-2-propyl-1-benzofuran-7-yl)methoxy]-2,3-dimethylphenyl}propanoic acid], the “Dose Responses C57 OGTT” value with C57bl/6J Mice (3 mg/kg) and with C57bl/6J Mice (10 mg/kg) was −16% in each case. Also, the EC50 in assay [1] was determined as 0.302 µM.

Consider `Cc1c(CCC(=O)O)ccc(OCc2cc(Cl)cc3sc(C(C)C)nc23)c1C` [Compound 106, 3-(4-{[6-chloro-2-(1-methylethyl)-1,3-benzothiazol-4-yl]methoxy}-2,3-dimethylphenyl)propanoic acid], for which the values for the EC50 (in assay [2]; on Human GPR120 short form) were 0.882 µM and 0.184 µM, respectively.

In the case of `Cc1c(CCC(=O)O)ccc(OCc2cc(F)cc3sc(C(C)(C)C)nc23)c1C` [Compound 107, 3-{4-[(2-tert-butyl-6-fluoro-1,3-benzothiazol-4-yl)methoxy]-2,3-dimethylphenyl}propanoic acid], the EC50 in assay [2] was found to be 3.92 µM; at Human GPR120 short form it was 1.01 µM.

Turning to `Cc1cc2cc(Cl)c(CCCS(C)(=O)=O)c(COc3ccc(CCC(=O)O)c(C)c3C)c2o1` [Compound 108, 3-[4-({5-Chloro-2-methyl-6-[3-(methylsulfonyl)propyl]-1-benzofuran-7-yl}methoxy)-2,3-dimethylphenyl]propanoic acid], the EC50 at Human GPR120 short form is 2.74 µM.

For `CCc1nc2c(COc3ccc(CCC(=O)O)c(C)c3C)cc(Cl)cc2s1` [Compound 109, 3-{4-[(6-Chloro-2-ethyl-1,3-benzothiazol-4-yl)methoxy]-2,3-dimethylphenyl}propanoic acid], the EC50 in assay [2] stood at 0.191 µM; at Human GPR120 short form it was 0.038 µM.

Take `Cc1c(CCC(=O)O)ccc(OCc2cc(Cl)cc3sc(CC(C)C)nc23)c1C` [Compound 110, 3-(4-{[6-Chloro-2-(2-methylpropyl)-1,3-benzothiazol-4-yl]methoxy}-2,3-dimethylphenyl)propanoic acid]: the half-maximal effective concentration (EC50) in assay [2] was 3.31 µM; on Human GPR120 short form, 0.949 µM.

These data come from US9562053B2, “Benzo-fused heterocyclic derivatives useful as agonists of GPR120” (Janssen Pharmaceutica NV, priority 2013, dated 2017).
